Results reported in patent US20110224079A1, “SPIROHETEROCYCLIC N-OXYAMIDES AS PESTICIDES” (SYNGENTA CROP PROTECTION LLC, priority 2008, published 2011).

Experiments:
[1] = tested on: Myzus persicae (green peach aphid); assay: Example B17: activity against Myzus persicae on sprayed pepper plants (feeding/residual contact); assay type: in vivo; details: 144 h, infested pepper plants sprayed, 6 days
[2] = tested on: Myzus persicae (green peach aphid); assay: Example B2: activity against Myzus persicae, pea seedling roots in test solution (systemic/feeding, curative); details: 144 h, read-out: activity (mortality)
[3] = tested on: Myzus persicae (green peach aphid); assay: Example B1: activity against Myzus persicae, sprayed sunflower leaf discs (feeding/residual contact, preventive); details: foliar, 144 h, read-out: activity (mortality)
[4] = tested on: Tetranychus urticae (two-spotted spider mite); assay: Example B4: activity against Tetranychus urticae, sprayed bean leaf discs (feeding/residual contact, preventive); details: foliar, 192 h, read-out: activity (egg, larval and adult mortality)

Row | SMILES | mortality at 200 ppm [1] [%] | mortality at 400 ppm [2] [%] | mortality at 400 ppm [3] [%] | mortality at 400 ppm [4] [%]
1 | CCOC(=O)OC1=C(c2c(C)cccc2C)C(=O)N(OCCOC)C12CCN(OC)CC2 [P1.73] | ≥ 80 | > 80 | > 80 | 
2 | CCOC(=O)OC1=C(c2c(C)cc(C)cc2Br)C(=O)N(OCOC)C12CCN(OC)CC2 [P1.68] |  | > 80 | > 80 | 
3 | CCOC(=O)OC1=C(c2c(C)ccc(Cl)c2C)C(=O)N(OCCOC)C12CCN(OC)CC2 [P1.65] | ≥ 80 | > 80 |  | 
4 | COCCON1C(=O)C(c2cc(C)c(C)cc2Br)=C(O)C12CCN(OC)CC2 [P2.53] |  | > 80 |  | 
5 | CCOC(=O)OC1=C(c2cc(Br)c(C)cc2C)C(=O)N(OCOC)C12CCN(OC)CC2 [P1.87] |  |  |  | > 80
6 | COCCON1C(=O)C(c2c(C)ccc(Cl)c2C)=C(O)C12CCN(OC)CC2 [P2.70] | ≥ 80 | > 80 | > 80 | 
7 | COCON1C(=O)C(c2c(C)ccc(Cl)c2C)=C(O)C12CCN(OC)CC2 [P2.71] | ≥ 80 | > 80 |  | 
8 | CON1CCC2(CC1)C(O)=C(c1c(C)cc(C)c(C)c1C)C(=O)N2OC [P2.49] |  | > 80 |  | 
9 | COCON1C(=O)C(c2ccc(C)cc2C)=C(O)C12CCN(OC)CC2 [P2.52] |  | > 80 | > 80 | 
10 | COCCCON1C(=O)C(c2c(C)cc(C)cc2C)=C(O)C12CCN(OC)CC2 [P2.28] |  | > 80 | > 80 | 
11 | CON1CCC2(CC1)C(O)=C(c1c(Cl)ccc(C)c1F)C(=O)N2OC1CCCO1 (stereo not drawn) [P2.45] |  |  |  | > 80
12 | COCCON1C(=O)C(c2c(F)ccc(C)c2Cl)=C(O)C12CCN(OC)CC2 [P2.59] |  | > 80 |  | 
13 | CCOC(=O)OC1=C(c2c(C)cc(C)cc2C)C(=O)N(OCC2CCSCC2)C12CCN(OC)CC2 [P1.80] |  |  |  | > 80
14 | CCOC(=O)OC1=C(c2cc(C)c(C)cc2Cl)C(=O)N(OCOC)C12CCN(OC)CC2 [P1.38] | ≥ 80 |  | > 80 | 
15 | CON1CCC2(CC1)C(O)=C(c1c(C)cc(C)cc1C)C(=O)N2OCC1CCSCC1 [P2.82] | ≥ 80 |  |  | 
16 | CON1CCC2(CC1)C(O)=C(c1c(Cl)ccc(C)c1F)C(=O)N2OC1CCCO1 (stereo not drawn) [P2.44] |  | > 80 |  | 
17 | CCOC(=O)OC1=C(c2cc(C)c(C)cc2Br)C(=O)N(OCOC)C12CCN(OC)CC2 [P1.52] |  | > 80 |  | 
18 | CON1CCC2(CC1)C(O)=C(c1c(C)cc(C)cc1C)C(=O)N2OC1CCOC1 (stereo not drawn) [P2.98] |  | > 80 | > 80 | 
19 | CCOC(=O)OC1=C(c2cc(C)c(Cl)cc2C)C(=O)N(OC)C12CCN(OC)CC2 [P1.34] |  |  | > 80 | 
20 | CCOC(=O)OC1=C(c2c(C)cc(C)cc2C)C(=O)N(OC2COC2)C12CCN(OC)CC2 [P1.79] | ≥ 80 | > 80 |  | 
21 | CON1CCC2(CC1)C(O)=C(c1cc(C)c(C)cc1Cl)C(=O)N2OC [P2.43] | ≥ 80 |  |  | 
22 | CCOC(=O)OC1=C(c2c(C)cc(C)cc2Br)C(=O)N(OC)C12CCN(OC)CC2 [P1.66] |  | > 80 | > 80 | 
23 | CCOC(=O)OC1=C(c2c(C)cc(Br)cc2C)C(=O)N(OCCOC)C12CCN(OC)CC2 [P1.89] | ≥ 80 | > 80 | > 80 | 

Row | SMILES | mortality at 200 ppm [1] [%] | mortality at 400 ppm [2] [%] | mortality at 400 ppm [3] [%] | mortality at 400 ppm [4] [%]
24 | CCOC(=O)OC1=C(c2c(C)cc(-c3ccc(Cl)cc3)cc2C)C(=O)N(OCOC)C12CCN(OC)CC2 [P1.20] |  |  | > 80 | 
25 | COCCON1C(=O)C(c2cc(C)c(C)cc2Cl)=C(O)C12CCN(OC)CC2 [P2.32] |  | > 80 |  | 
26 | COCCON1C(=O)C(c2c(C)cc(Br)cc2C)=C(O)C12CCN(OC)CC2 [P2.80] |  | > 80 | > 80 | 
27 | CCOC(=O)OC1=C(c2cc(C)c(Cl)cc2C)C(=O)N(OCOC)C12CCN(OC)CC2 [P1.32] | ≥ 80 |  |  | 
28 | CON1CCC2(CC1)C(O)=C(c1ccc(C)cc1C)C(=O)N2OC1CCCO1 (stereo not drawn) [P2.33] | ≥ 80 | > 80 | > 80 | 
29 | CCOC(=O)OC1=C(c2c(Cl)ccc(C)c2F)C(=O)N(OCOC)C12CCN(OC)CC2 [P1.42] |  | > 80 |  | 
30 | COCON1C(=O)C(c2c(C)cc(C)cc2Br)=C(O)C12CCN(OC)CC2 [P2.72] |  | > 80 | > 80 | 
31 | COCON1C(=O)C(c2c(Cl)ccc(C)c2F)=C(O)C12CCN(OC)CC2 [P2.46] |  | > 80 |  | 
32 | COCON1C(=O)C(c2cc(C)c(Cl)cc2C)=C(O)C12CCN(OC)CC2 [P2.27] |  | > 80 |  | 
33 | CON1CCC2(CC1)C(O)=C(c1c(C)cc(C)cc1C)C(=O)N2OCCSC [P2.99] | ≥ 80 | > 80 |  | 
34 | CCOC(=O)OC1=C(c2c(C)cc(Br)cc2C)C(=O)N(OC2CCCO2)C12CCN(OC)CC2 (stereo not drawn) [P1.63] | ≥ 80 | > 80 | > 80 | 
35 | COCCON1C(=O)C(c2cc(C)c(C)cc2C)=C(O)C12CCN(OC)CC2 [P2.37] |  |  | > 80 | 
36 | CCOC(=O)OC1=C(c2c(C)cc(C)cc2C)C(=O)N(OCC2CCCCC2)C12CCN(OC)CC2 [P1.105] |  |  |  | > 80
37 | CCOC(=O)OC1=C(c2cc(C)c(C)cc2Cl)C(=O)N(OCCOC)C12CCN(OC)CC2 [P1.35] |  | > 80 | > 80 | 
38 | CCOC(=O)OC1=C(c2c(C)cc(C)cc2C)C(=O)N(OC2CCOC2)C12CCN(OC)CC2 (stereo not drawn) [P1.108] |  | > 80 | > 80 | 
39 | CCOC(=O)OC1=C(c2c(C)cc(C)cc2Br)C(=O)N(OCCOC)C12CCN(OC)CC2 [P1.67] |  | > 80 | > 80 | 
40 | CON1CCC2(CC1)C(O)=C(c1c(C)cc(C)cc1C)C(=O)N2OC1COC1 [P2.66] | ≥ 80 | > 80 | > 80 | 
41 | CCOC(=O)OC1=C(c2c(C)cc(C)cc2C)C(=O)N(OC2CCCCC2)C12CCN(OC)CC2 [P1.30] |  |  | > 80 | 
42 | CCOC(=O)OC1=C(c2cc(C)c(Cl)cc2C)C(=O)N(OC2CCCO2)C12CCN(OC)CC2 (stereo not drawn) [P1.103] |  |  | > 80 | 
43 | CON1CCC2(CC1)C(O)=C(c1cc(C)c(C)cc1C)C(=O)N2OC [P2.36] | ≥ 80 |  | > 80 | 
44 | CCOC(=O)OC1=C(c2ccc(C)cc2C)C(=O)N(OCOC)C12CCN(OC)CC2 [P1.50] |  | > 80 | > 80 | 
45 | CCOC(=O)OC1=C(c2cc(Br)ccc2C)C(=O)N(OCOC)C12CCN(OC)CC2 [P1.21] |  |  |  | > 80
46 | CCOC(=O)OC1=C(c2c(F)ccc(C)c2Cl)C(=O)N(OC2CCCO2)C12CCN(OC)CC2 (stereo not drawn) [P1.102] |  | > 80 |  | 

Row | SMILES | mortality at 200 ppm [1] [%] | mortality at 400 ppm [2] [%] | mortality at 400 ppm [3] [%] | mortality at 400 ppm [4] [%]
47 | CON1CCC2(CC1)C(O)=C(c1c(F)ccc(C)c1Cl)C(=O)N2OC1CCCO1 (stereo not drawn) [P2.92] |  | > 80 | > 80 | 
48 | CCOC(=O)OC1=C(c2cc(C)c(C)cc2C)C(=O)N(OCCOC)C12CCN(OC)CC2 [P1.36] |  |  | > 80 | 
49 | CCOC(=O)OC1=C(c2c(C)cc(C)c(C)c2C)C(=O)N(OCCOC)C12CCN(OC)CC2 [P1.46] |  | > 80 |  | 
50 | CCOC(=O)OC1=C(c2cc(C)c(C)cc2C)C(=O)N(OC)C12CCN(OC)CC2 [P1.57] | ≥ 80 | > 80 | > 80 | 
51 | CCOC(=O)OC1=C(c2c(C)ccc(Cl)c2C)C(=O)N(OC)C12CCN(OC)CC2 [P1.37] | ≥ 80 |  | > 80 | 
52 | CON1CCC2(CC1)C(O)=C(c1cc(C)c(Cl)cc1C)C(=O)N2OC1CCCO1 (stereo not drawn) [P2.93] |  |  | > 80 | 
53 | CON1CCC(ON2C(=O)C(c3c(C)cc(C)cc3C)=C(O)C23CCN(OC)CC3)CC1 [P2.95] | ≥ 80 | > 80 |  | 
54 | CON1CCC2(CC1)C(O)=C(c1cc(Br)c(C)cc1C)C(=O)N2OC1CCCO1 (stereo not drawn) [P2.76] |  |  |  | > 80
55 | COCON1C(=O)C(c2cc(C)c(C)cc2C)=C(O)C12CCN(OC)CC2 [P2.38] | ≥ 80 |  | > 80 | 
56 | CCOC(=O)OC1=C(c2cc(C)c(C)cc2Cl)C(=O)N(OC2CCCO2)C12CCN(OC)CC2 (stereo not drawn) [P1.64] |  | > 80 |  | 
57 | COCCON1C(=O)C(c2cc(C)c(Cl)cc2C)=C(O)C12CCN(OC)CC2 [P2.29] | ≥ 80 |  |  | 
58 | CCOCON1C(=O)C(c2ccc(C)cc2C)=C(O)C12CCN(OC)CC2 [P2.61] |  | > 80 | > 80 | 
59 | CCOC(=O)OC1=C(c2cc(C)c(C)cc2Cl)C(=O)N(OC)C12CCN(OC)CC2 [P1.39] |  |  | > 80 | 
60 | CON1CCC2(CC1)C(O)=C(c1cc(C)c(Cl)cc1C)C(=O)N2OC [P2,31] | ≥ 80 |  |  | 
61 | CCOC(=O)OC1=C(c2c(Cl)ccc(C)c2F)C(=O)N(OC)C12CCN(OC)CC2 [P1.41] |  | > 80 |  | 
62 | CON1CCC2(CC1)C(O)=C(c1c(C)cccc1C)C(=O)N2OC [P2.78] | ≥ 80 | > 80 | > 80 | 
63 | COCON1C(=O)C(c2cc(Br)c(C)cc2C)=C(O)C12CCN(OC)CC2 [P2.74] |  |  | > 80 | 
64 | CON1CCC2(CC1)C(O)=C(c1c(C)cc(C)cc1C)C(=O)N2OC1CCCCC1 [P2.26, 1-Cyclohexyloxy-4-hydroxy-8-methoxy-3-(2,4,6-trimethyl-phenyl)-1,8-diaza-spiro[4.5]dec-3-en-2-one] |  |  |  | > 80
65 | COCON1C(=O)C(c2cc(C)c(C)cc2Br)=C(O)C12CCN(OC)CC2 [P2.41] |  | > 80 | > 80 | 
66 | CCOC(=O)OC1=C(c2cc(C)c(Cl)cc2C)C(=O)N(OCCOC)C12CCN(OC)CC2 [P1.33] |  |  | > 80 | 
67 | CON1CCC2(CC1)C(O)=C(c1c(C)ccc(Cl)c1C)C(=O)N2OC [P2.40] | ≥ 80 | > 80 | > 80 | 
